Test system: FLU A (PR/8/34)
Test: Flu A Neuraminidase Antiviral Assay
Type: cell-based
Conditions: MDCK cells infected with FLU A (PR/8/34), 48 h incubation, NA activity by MUNANA fluorescence

O=C1c2c(O)c(=O)ccn2N2CN1CCCCC2c1ccccc1 (centres unmarked) [Compound 1]
EC50: 143 nM

O=C1c2c(O)c(=O)ccn2N2CN1CCCCC2c1ccccc1Cl (centres unmarked) [Compound 2]
EC50: 72 nM

O=C1c2c(O)c(=O)ccn2N2CN1CCCCC2c1cccc(Cl)c1 (centres unmarked) [Compound 3]
EC50: 133 nM

O=C1c2c(O)c(=O)ccn2N2CN1CCCCC2c1ccc(Cl)cc1 (centres unmarked) [Compound 4]
EC50: 1690 nM

O=C1c2c(O)c(=O)ccn2N2CN1CCCCC2c1ccccc1Br (centres unmarked) [Compound 5]
EC50: 92 nM

O=C1c2c(O)c(=O)ccn2N2CN1CC(F)CCC2c1ccccc1 (centres unmarked) [Compound 9]
EC50: 578 nM

O=C1c2c(O)c(=O)ccn2N2CN1CCCCC2c1cccc2ccccc12 (centres unmarked) [Compound 10]
EC50: 577 nM

O=C1c2c(O)c(=O)ccn2N2CN1CCCCC2c1cccc2ccc(F)cc12 (centres unmarked) [Compound 11]
EC50: 966 nM

O=C1c2c(O)c(=O)ccn2N2CN1CCCCC2c1ccc2ccccc2c1 (centres unmarked) [Compound 12]
EC50: 6290 nM

CC1(c2ccccc2)CCCCN2CN1n1ccc(=O)c(O)c1C2=O (centres unmarked) [Compound 13]
EC50: 310 nM

O=C1c2c(O)c(=O)ccn2N2CN1CCCCCC2c1ccccc1 (centres unmarked) [Compound 14]
EC50: 927 nM

CC1CCCC(c2ccccc2)N2CN1C(=O)c1c(O)c(=O)ccn12 (centres unmarked) [Compound 15]
EC50: 460 nM

O=C1c2c(O)c(=O)ccn2N2CN1C(C1CC1)CCCC2c1ccccc1 (centres unmarked) [Compound 16]
EC50: 164 nM

O=C1c2c(O)c(=O)ccn2N2CN1C/C=C\CC2c1ccccc1 (centres unmarked) [Compound 17]
EC50: 193 nM

O=C1c2c(O)c(=O)ccn2N2CN1C/C=C\CC2c1cccc2ccc(F)cc12 (centres unmarked) [Compound 18]
EC50: 1460 nM

CC1/C=C\CC(c2ccccc2)N2CN1C(=O)c1c(O)c(=O)ccn12 (centres unmarked) [Compound 19]
EC50: 229 nM

O=C1c2c(O)c(=O)ccn2N2CN1C(C1CC1)/C=C\CC2c1ccccc1 (centres unmarked) [Compound 20]
EC50: 171 nM

CC1N2CCCCC(c3ccccc3)N1n1ccc(=O)c(O)c1C2=O (centres unmarked) [Compound 21]
EC50: 98 nM

CC1N2CCCCCC(c3ccccc3)N1n1ccc(=O)c(O)c1C2=O (centres unmarked) [Compound 22]
EC50: 228 nM

CC1CCN2CN(C(c3ccccc3)C1)n1ccc(=O)c(O)c1C2=O (centres unmarked) [Compound 23]
EC50: 4410 nM
